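GI50: concentration for 50% inhibition of growth. TGI denotes the concentration required for complete inhibition of growth.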
Key:
Assay in all cases: NCI-60 cell line screen, 384-well format
NCI-H322M lung = tested on: NCI-H322M lung
EKVX NSCLC = tested on: EKVX NSCLC
TK-10 renal = tested on: TK-10 renal
MOLT-4 leukemia = tested on: MOLT-4 leukemia
LOX IMVI melanoma = tested on: LOX IMVI melanoma
SK-MEL-5 melanoma = tested on: SK-MEL-5 melanoma
SR leukemia = tested on: SR leukemia
OVCAR-3 ovarian = tested on: OVCAR-3 ovarian
SF-268 CNS = tested on: SF-268 CNS
IGROV1 ovarian = tested on: IGROV1 ovarian
SN12C renal = tested on: SN12C renal
HT29 colon = tested on: HT29 colon
SK-OV-3 ovarian = tested on: SK-OV-3 ovarian
DU-145 prostate = tested on: DU-145 prostate
NCI-H226 lung = tested on: NCI-H226 lung
MALME-3M melanoma = tested on: MALME-3M melanoma
COLO 205 colon = tested on: COLO 205 colon
SNB-19 CNS = tested on: SNB-19 CNS
U251 glioblastoma = tested on: U251 glioblastoma
SNB-75 CNS = tested on: SNB-75 CNS
BT-549 breast = tested on: BT-549 breast
UACC-62 melanoma = tested on: UACC-62 melanoma
NCI-H23 lung = tested on: NCI-H23 lung
HS 578T breast = tested on: HS 578T breast
ACHN renal = tested on: ACHN renal
HCT-15 colon = tested on: HCT-15 colon
NCI-H460 NSCLC = tested on: NCI-H460 NSCLC
NCI-H522 lung = tested on: NCI-H522 lung
MDA-MB-231 breast = tested on: MDA-MB-231 breast
RPMI-8226 leukemia = tested on: RPMI-8226 leukemia
SF-539 CNS = tested on: SF-539 CNS
PC-3 prostate = tested on: PC-3 prostate
OVCAR-8 ovarian = tested on: OVCAR-8 ovarian
A549 NSCLC = tested on: A549 NSCLC
HOP-62 NSCLC = tested on: HOP-62 NSCLC
SK-MEL-28 melanoma = tested on: SK-MEL-28 melanoma
OVCAR-4 ovarian = tested on: OVCAR-4 ovarian
T-47D breast = tested on: T-47D breast
OVCAR-5 ovarian = tested on: OVCAR-5 ovarian
HCC-2998 colon = tested on: HCC-2998 colon
HL-60(TB) leukemia = tested on: HL-60(TB) leukemia
MDA-MB-468 breast = tested on: MDA-MB-468 breast
RXF 393 renal = tested on: RXF 393 renal
KM12 colon = tested on: KM12 colon
UACC-257 melanoma = tested on: UACC-257 melanoma
MDA-MB-435 melanoma = tested on: MDA-MB-435 melanoma
SF-295 CNS = tested on: SF-295 CNS
NCI/ADR-RES ovarian = tested on: NCI/ADR-RES ovarian
HOP-92 NSCLC = tested on: HOP-92 NSCLC
HCT-116 colon = tested on: HCT-116 colon
A498 renal = tested on: A498 renal
MCF7 breast = tested on: MCF7 breast
M14 melanoma = tested on: M14 melanoma
CAKI-1 renal = tested on: CAKI-1 renal

SMILES: CC(C)c1cc(C(=O)N2Cc3ccc(CN4CCN(C)CC4)cc3C2)c(O)cc1O
- GI50 (NCI-H322M lung): 84.7 nM
- TGI (NCI-H322M lung): 4760 nM
- GI50 (EKVX NSCLC): 46.1 nM
- TGI (EKVX NSCLC): 8590 nM
- GI50 (TK-10 renal): 45 nM
- TGI (TK-10 renal): 856 nM
- GI50 (MOLT-4 leukemia): 19.4 nM
- TGI (MOLT-4 leukemia): 35.7 nM
- GI50 (LOX IMVI melanoma): 39.2 nM
- TGI (LOX IMVI melanoma): 146 nM
- GI50 (SK-MEL-5 melanoma): 23.7 nM
- TGI (SK-MEL-5 melanoma): 1330 nM
- GI50 (SR leukemia): 13.8 nM
- TGI (SR leukemia): 36.8 nM
- GI50 (OVCAR-3 ovarian): 34.3 nM
- TGI (OVCAR-3 ovarian): 93.5 nM
- GI50 (SF-268 CNS): 71.1 nM
- TGI (SF-268 CNS): 16200 nM
- GI50 (IGROV1 ovarian): 37.7 nM
- TGI (IGROV1 ovarian): 216 nM
- GI50 (SN12C renal): 24.4 nM
- TGI (SN12C renal): 125 nM
- GI50 (HT29 colon): 40.5 nM
- TGI (HT29 colon): 11300 nM
- GI50 (SK-OV-3 ovarian): 84.3 nM
- TGI (SK-OV-3 ovarian): 12100 nM
- GI50 (DU-145 prostate): 30.3 nM
- TGI (DU-145 prostate): 88.7 nM
- GI50 (NCI-H226 lung): 75.8 nM
- TGI (NCI-H226 lung): 838 nM
- GI50 (MALME-3M melanoma): 61.5 nM
- TGI (MALME-3M melanoma): 694 nM
- GI50 (COLO 205 colon): 23.7 nM
- TGI (COLO 205 colon): 62.9 nM
- GI50 (SNB-19 CNS): 76.4 nM
- TGI (SNB-19 CNS): 710 nM
- GI50 (U251 glioblastoma): 34.3 nM
- TGI (U251 glioblastoma): 97.3 nM
- GI50 (SNB-75 CNS): 52.5 nM
- TGI (SNB-75 CNS): 11600 nM
- GI50 (BT-549 breast): 32.1 nM
- TGI (BT-549 breast): 528 nM
- GI50 (UACC-62 melanoma): 113 nM
- TGI (UACC-62 melanoma): 1680 nM
- GI50 (NCI-H23 lung): 38.2 nM
- TGI (NCI-H23 lung): 13300 nM
- GI50 (HS 578T breast): 131 nM
- TGI (HS 578T breast): 2330 nM
- GI50 (ACHN renal): 59.4 nM
- TGI (ACHN renal): 2840 nM
- GI50 (HCT-15 colon): 32.2 nM
- TGI (HCT-15 colon): 10200 nM
- GI50 (NCI-H460 NSCLC): 17.9 nM
- TGI (NCI-H460 NSCLC): 43.6 nM
- GI50 (NCI-H522 lung): 20.6 nM
- TGI (NCI-H522 lung): 42.3 nM
- GI50 (MDA-MB-231 breast): 142 nM
- TGI (MDA-MB-231 breast): 775 nM
- GI50 (RPMI-8226 leukemia): 40.3 nM
- TGI (RPMI-8226 leukemia): 156 nM
- GI50 (SF-539 CNS): 40.4 nM
- TGI (SF-539 CNS): 10400 nM
- GI50 (PC-3 prostate): 46.5 nM
- TGI (PC-3 prostate): 319 nM
- GI50 (OVCAR-8 ovarian): 37.9 nM
- TGI (OVCAR-8 ovarian): 175 nM
- GI50 (A549 NSCLC): 64.1 nM
- TGI (A549 NSCLC): 16800 nM
- GI50 (HOP-62 NSCLC): 47.4 nM
- TGI (HOP-62 NSCLC): 357 nM
- GI50 (SK-MEL-28 melanoma): 400 nM
- TGI (SK-MEL-28 melanoma): 17100 nM
- GI50 (OVCAR-4 ovarian): 33.2 nM
- TGI (OVCAR-4 ovarian): 1700 nM
- GI50 (T-47D breast): 172 nM
- TGI (T-47D breast): 11600 nM
- GI50 (OVCAR-5 ovarian): 38.7 nM
- TGI (OVCAR-5 ovarian): 186 nM
- GI50 (HCC-2998 colon): 12.4 nM
- TGI (HCC-2998 colon): 31.7 nM
- GI50 (HL-60(TB) leukemia): 21.8 nM
- TGI (HL-60(TB) leukemia): 41.7 nM
- GI50 (MDA-MB-468 breast): 37.1 nM
- TGI (MDA-MB-468 breast): 158 nM
- GI50 (RXF 393 renal): 33.8 nM
- TGI (RXF 393 renal): 11300 nM
- GI50 (KM12 colon): 37.1 nM
- TGI (KM12 colon): 12500 nM
- GI50 (UACC-257 melanoma): 186 nM
- TGI (UACC-257 melanoma): 5190 nM
- GI50 (MDA-MB-435 melanoma): 35.3 nM
- TGI (MDA-MB-435 melanoma): 10500 nM
- GI50 (SF-295 CNS): 40.7 nM
- TGI (SF-295 CNS): 256 nM
- GI50 (NCI/ADR-RES ovarian): 166 nM
- TGI (NCI/ADR-RES ovarian): 515 nM
- GI50 (HOP-92 NSCLC): 217 nM
- TGI (HOP-92 NSCLC): 1600 nM
- GI50 (HCT-116 colon): 57.6 nM
- TGI (HCT-116 colon): 11700 nM
- GI50 (A498 renal): 82.2 nM
- TGI (A498 renal): 11300 nM
- GI50 (MCF7 breast): 37.9 nM
- TGI (MCF7 breast): 11100 nM
- GI50 (M14 melanoma): 47.9 nM
- TGI (M14 melanoma): 2690 nM
- GI50 (CAKI-1 renal): 342 nM
- TGI (CAKI-1 renal): 17300 nM

From PubChem BioAssay (NCI)
